Data reported in ChEMBL document CHEMBL4251601 (Eur J Med Chem, 2018).

How the values were obtained:
[1] = target: Tyrosine-protein kinase BTK (Homo sapiens) (UniProt Q06187); assay: Inhibition of recombinant full length human His-tagged BTK expressed in baculovirus expression system at 0.1 uM by TR-FRET assay relative to control
[2] = target: Serine/threonine-protein kinase MRCK beta (Homo sapiens) (UniProt Q9Y5S2); assay: Inhibition of recombinant human His-tagged CDC42 BPB expressed in baculovirus expression system at 0.1 uM by Z'-Lyte assay relative to control
[3] = target: Dual specificity tyrosine-phosphorylation-regulated kinase 3 (Homo sapiens) (UniProt O43781); assay: Inhibition of recombinant full length human GST-tagged DYRK3 expressed in baculovirus expression system at 0.1 uM by Z'-Lyte assay relative to control
Chain of Dual specificity tyrosine-phosphorylation-regulated kinase 3 (Homo sapiens) (O43781 whole entry): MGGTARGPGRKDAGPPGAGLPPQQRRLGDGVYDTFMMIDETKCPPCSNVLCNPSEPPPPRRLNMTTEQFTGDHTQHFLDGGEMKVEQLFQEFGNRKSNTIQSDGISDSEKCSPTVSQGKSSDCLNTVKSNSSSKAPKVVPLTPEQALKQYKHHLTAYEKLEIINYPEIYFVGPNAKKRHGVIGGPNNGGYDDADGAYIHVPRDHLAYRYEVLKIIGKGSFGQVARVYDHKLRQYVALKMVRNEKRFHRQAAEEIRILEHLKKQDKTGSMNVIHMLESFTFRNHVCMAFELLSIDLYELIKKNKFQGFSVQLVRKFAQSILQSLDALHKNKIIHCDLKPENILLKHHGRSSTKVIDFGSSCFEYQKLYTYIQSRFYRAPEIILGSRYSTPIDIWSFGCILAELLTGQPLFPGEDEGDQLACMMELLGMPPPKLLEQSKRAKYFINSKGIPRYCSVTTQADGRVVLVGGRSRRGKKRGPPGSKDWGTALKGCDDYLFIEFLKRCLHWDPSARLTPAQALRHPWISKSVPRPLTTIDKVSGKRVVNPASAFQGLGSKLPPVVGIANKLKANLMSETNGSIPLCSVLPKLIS

[4] = system: Epidermal growth factor receptor (Homo sapiens), P00533 [UNDEFINED MUTATION]; assay: Inhibition of recombinant human EGFR d746 to 750 deletion/T790M mutant at 0.1 uM by TR-FRET assay relative to control
[5] = target: Mitogen-activated protein kinase 1 (Homo sapiens) (UniProt P28482); assay: Inhibition of recombinant human full length GST-tagged ERK2 expressed in Escherichia coli at 0.1 uM by Z'-Lyte assay relative to control
Chain of Mitogen-activated protein kinase 1 (Homo sapiens) (P28482 whole entry): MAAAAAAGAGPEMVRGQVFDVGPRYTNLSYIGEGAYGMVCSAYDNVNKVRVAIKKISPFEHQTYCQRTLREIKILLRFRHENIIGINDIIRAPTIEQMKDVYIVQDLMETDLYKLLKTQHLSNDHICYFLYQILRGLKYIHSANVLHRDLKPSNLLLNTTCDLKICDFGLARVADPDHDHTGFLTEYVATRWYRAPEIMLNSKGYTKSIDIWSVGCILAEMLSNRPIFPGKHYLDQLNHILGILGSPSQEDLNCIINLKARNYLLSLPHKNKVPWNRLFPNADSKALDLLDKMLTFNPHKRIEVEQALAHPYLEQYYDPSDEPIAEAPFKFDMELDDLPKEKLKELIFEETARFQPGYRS

[6] = target: G protein-coupled receptor kinase 4 (Homo sapiens) (UniProt P32298); assay: Inhibition of recombinant human full length GST-tagged GRK4 expressed in baculovirus expression system at 0.1 uM by Z'-Lyte assay relative to control
[7] = target: Tyrosine-protein kinase Lyn (Homo sapiens) (UniProt P07948); assay: Inhibition of recombinant human full length GST-tagged Lyn-A expressed in insect cells at 0.1 uM by Z'-Lyte assay relative to control
Chain of Tyrosine-protein kinase Lyn (Homo sapiens) (P07948 2-512 limits assumed): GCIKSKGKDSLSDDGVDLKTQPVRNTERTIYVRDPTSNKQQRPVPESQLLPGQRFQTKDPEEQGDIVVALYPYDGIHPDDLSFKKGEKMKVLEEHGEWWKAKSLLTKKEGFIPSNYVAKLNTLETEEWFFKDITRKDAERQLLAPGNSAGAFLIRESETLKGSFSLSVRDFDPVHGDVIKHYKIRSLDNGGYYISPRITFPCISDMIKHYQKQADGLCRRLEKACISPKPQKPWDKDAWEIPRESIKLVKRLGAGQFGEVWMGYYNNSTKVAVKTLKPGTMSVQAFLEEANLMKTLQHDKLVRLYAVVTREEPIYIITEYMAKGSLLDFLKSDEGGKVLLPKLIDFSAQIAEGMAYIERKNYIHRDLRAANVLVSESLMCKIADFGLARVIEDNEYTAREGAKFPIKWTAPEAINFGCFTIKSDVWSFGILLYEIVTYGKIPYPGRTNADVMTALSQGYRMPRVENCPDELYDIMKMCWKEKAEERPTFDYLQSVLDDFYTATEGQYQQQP

[8] = target: Tyrosine-protein kinase Mer (Homo sapiens) (UniProt Q12866); assay: Inhibition of recombinant human GST-tagged MERTK (578 to 872 residues) expressed in baculovirus expression system at 0.1 uM by Z'-Lyte assay relative to control
[9] = target: Phosphatidylinositol 4,5-bisphosphate 3-kinase catalytic subunit beta isoform (Homo sapiens) (UniProt P42338); assay: Inhibition of PI3K beta (unknown origin) at 0.1 uM by ADP-Glo assay relative to control
[10] = target: Phosphatidylinositol 4,5-bisphosphate 3-kinase catalytic subunit gamma isoform (Homo sapiens) (UniProt P48736); assay: Inhibition of PI3K gamma (unknown origin) at 0.1 uM by ADP-Glo assay relative to control
[11] = target: Protein kinase C beta type (Homo sapiens) (UniProt P05771); assay: Inhibition of PKCbeta2 (unknown origin) at 0.1 uM by Z'-Lyte assay relative to control
[12] = target: RAF proto-oncogene serine/threonine-protein kinase (Homo sapiens) (UniProt P04049); assay: Inhibition of RAF1 (unknown origin) at 0.1 uM by TR-FRET assay relative to control
[13] = target: Proto-oncogene tyrosine-protein kinase receptor Ret (Homo sapiens) (UniProt P07949); assay: Inhibition of recombinant human GST-tagged RET cytoplasmic domain (658 to 1114 residues) expressed in baculovirus expression system at 0.1 uM by Z'-Lyte assay relative to control
[14] = target: Cyclin-dependent kinase 4/cyclin D1 (Homo sapiens) (UniProt P11802+P24385); assay: Inhibition of recombinant full length human GST-tagged CDK4/Cyclin-D1 expressed in baculovirus expression system at 1 uM by TR-FRET assay relative to control
[15] = target: ALK tyrosine kinase receptor (Homo sapiens) (UniProt Q9UM73); assay: Inhibition of recombinant N-terminal GST-tagged human ALK cytoplasmic domain (1058 to 1620 residues) expressed in baculovirus expression system at 1 uM by TR-FRET assay relative to control
[16] = target: Calcium/calmodulin-dependent protein kinase type II subunit beta (Homo sapiens) (UniProt Q13554); assay: Inhibition of recombinant full length human His-tagged CAMK2B expressed in baculovirus expression system at 1 uM by Z'-Lyte assay relative to control
[17] = target: Tyrosine-protein kinase receptor UFO (Homo sapiens) (UniProt P30530); assay: Inhibition of recombinant human N-terminal GST tagged AXL (473-end residues) expressed in baculovirus infected Sf9 cells at 1 uM by Z'-Lyte assay relative to control
Chain of Tyrosine-protein kinase receptor UFO (Homo sapiens) (P30530 whole entry): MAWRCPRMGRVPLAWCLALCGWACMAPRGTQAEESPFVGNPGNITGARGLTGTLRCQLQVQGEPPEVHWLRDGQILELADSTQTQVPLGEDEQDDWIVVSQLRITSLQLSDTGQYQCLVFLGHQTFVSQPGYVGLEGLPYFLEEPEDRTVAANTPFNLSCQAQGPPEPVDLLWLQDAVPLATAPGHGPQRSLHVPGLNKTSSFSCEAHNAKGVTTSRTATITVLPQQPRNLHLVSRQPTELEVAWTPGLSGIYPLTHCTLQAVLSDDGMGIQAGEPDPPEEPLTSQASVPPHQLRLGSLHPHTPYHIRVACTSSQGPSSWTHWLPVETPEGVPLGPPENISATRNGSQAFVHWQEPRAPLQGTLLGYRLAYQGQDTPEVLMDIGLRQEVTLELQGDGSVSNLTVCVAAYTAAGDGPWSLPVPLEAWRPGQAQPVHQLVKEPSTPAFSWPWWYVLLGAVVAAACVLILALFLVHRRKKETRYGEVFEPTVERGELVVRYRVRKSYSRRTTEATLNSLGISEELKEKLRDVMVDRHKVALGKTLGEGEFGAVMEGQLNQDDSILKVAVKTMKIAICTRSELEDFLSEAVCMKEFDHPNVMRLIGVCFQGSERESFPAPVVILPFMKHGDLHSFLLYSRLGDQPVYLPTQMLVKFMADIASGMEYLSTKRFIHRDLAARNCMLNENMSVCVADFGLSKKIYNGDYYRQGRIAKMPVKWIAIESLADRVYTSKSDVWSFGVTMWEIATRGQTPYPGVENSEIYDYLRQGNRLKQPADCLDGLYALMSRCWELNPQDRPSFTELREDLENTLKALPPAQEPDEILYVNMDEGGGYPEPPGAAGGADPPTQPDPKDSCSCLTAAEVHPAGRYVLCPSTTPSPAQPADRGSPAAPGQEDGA

[18] = target: Tyrosine-protein kinase BTK (Homo sapiens) (UniProt Q06187); assay: Inhibition of recombinant full length human His-tagged BTK expressed in baculovirus expression system at 1 uM by TR-FRET assay relative to control
[19] = target: Casein kinase I isoform gamma-1 (Homo sapiens) (UniProt Q9HCP0); assay: Inhibition of recombinant full length human GST-tagged CK1gamma1 expressed in baculovirus expression system at 1 uM by Z'-Lyte assay relative to control
[20] = target: Receptor tyrosine-protein kinase erbB-2 (Homo sapiens) (UniProt P04626); assay: Inhibition of recombinant human His-tagged ERBB2 cytoplasmic domain expressed in baculovirus expression system at 1 uM by Z'-Lyte assay relative to control
Chain of Receptor tyrosine-protein kinase erbB-2 (Homo sapiens) (P04626 whole entry, the tested form may be a part): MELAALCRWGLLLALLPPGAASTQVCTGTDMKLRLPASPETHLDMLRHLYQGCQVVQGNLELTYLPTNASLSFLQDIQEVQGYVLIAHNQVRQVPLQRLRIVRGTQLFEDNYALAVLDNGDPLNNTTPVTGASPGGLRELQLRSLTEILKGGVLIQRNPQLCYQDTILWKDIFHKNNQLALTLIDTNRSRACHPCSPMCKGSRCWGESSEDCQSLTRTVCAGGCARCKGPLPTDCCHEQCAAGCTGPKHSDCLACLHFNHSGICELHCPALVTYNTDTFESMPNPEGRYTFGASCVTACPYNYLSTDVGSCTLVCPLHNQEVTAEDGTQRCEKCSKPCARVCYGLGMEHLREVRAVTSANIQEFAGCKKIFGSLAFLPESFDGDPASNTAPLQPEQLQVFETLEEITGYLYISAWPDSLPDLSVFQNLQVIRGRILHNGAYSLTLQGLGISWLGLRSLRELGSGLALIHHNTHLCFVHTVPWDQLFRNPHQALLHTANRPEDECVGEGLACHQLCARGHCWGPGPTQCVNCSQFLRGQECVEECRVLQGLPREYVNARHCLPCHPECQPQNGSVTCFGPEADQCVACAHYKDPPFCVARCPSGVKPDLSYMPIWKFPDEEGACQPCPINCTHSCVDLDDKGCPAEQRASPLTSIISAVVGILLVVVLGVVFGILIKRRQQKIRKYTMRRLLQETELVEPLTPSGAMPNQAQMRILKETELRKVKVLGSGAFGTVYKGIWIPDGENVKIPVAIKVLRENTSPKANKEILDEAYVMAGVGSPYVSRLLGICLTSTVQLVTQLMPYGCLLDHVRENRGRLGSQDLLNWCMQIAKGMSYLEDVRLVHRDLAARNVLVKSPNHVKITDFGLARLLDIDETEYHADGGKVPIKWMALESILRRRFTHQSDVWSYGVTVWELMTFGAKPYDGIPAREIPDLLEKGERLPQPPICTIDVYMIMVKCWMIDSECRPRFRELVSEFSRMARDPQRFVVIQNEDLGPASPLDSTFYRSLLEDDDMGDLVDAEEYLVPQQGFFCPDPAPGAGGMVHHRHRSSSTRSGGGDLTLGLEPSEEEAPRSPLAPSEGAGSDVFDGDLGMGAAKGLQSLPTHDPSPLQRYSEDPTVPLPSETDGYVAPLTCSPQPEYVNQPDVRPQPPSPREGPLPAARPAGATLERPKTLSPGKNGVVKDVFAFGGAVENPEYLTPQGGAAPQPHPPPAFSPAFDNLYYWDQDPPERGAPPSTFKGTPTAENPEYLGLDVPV

[21] = target: Fibroblast growth factor receptor 1 (Homo sapiens) (UniProt P11362); assay: Inhibition of recombinant human His-tagged FGFR1 cytoplasmic domain expressed in baculovirus expression system at 1 uM by Z'-Lyte assay relative to control
[22] = target: G protein-coupled receptor kinase 3 (Homo sapiens) (UniProt P35626); assay: Inhibition of recombinant human full length GST-tagged GRK3 expressed in baculovirus expression system at 1 uM by Z'-Lyte assay relative to control
[23] = target: G protein-coupled receptor kinase 5 (Homo sapiens) (UniProt P34947); assay: Inhibition of recombinant human full length GST-tagged GRK5 expressed in baculovirus expression system at 1 uM by Z'-Lyte assay relative to control
Chain of G protein-coupled receptor kinase 5 (Homo sapiens) (P34947 whole entry, looked up): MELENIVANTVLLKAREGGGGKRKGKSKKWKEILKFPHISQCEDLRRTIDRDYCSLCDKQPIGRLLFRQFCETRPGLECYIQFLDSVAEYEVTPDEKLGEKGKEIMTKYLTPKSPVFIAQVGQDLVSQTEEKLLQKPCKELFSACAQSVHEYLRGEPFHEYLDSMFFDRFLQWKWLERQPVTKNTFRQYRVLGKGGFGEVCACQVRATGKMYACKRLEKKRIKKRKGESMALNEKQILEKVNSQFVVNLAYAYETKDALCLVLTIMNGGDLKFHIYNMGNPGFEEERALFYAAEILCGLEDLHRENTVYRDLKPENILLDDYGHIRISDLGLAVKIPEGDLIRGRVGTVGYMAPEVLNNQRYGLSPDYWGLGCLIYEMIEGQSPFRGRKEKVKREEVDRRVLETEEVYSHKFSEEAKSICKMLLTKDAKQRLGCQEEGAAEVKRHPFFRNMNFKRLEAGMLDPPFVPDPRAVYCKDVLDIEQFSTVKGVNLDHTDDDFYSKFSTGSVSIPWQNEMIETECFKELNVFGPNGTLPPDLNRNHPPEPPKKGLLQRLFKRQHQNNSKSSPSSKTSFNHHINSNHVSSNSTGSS

[24] = target: Tyrosine-protein kinase Lyn (Homo sapiens) (UniProt P07948); assay: Inhibition of recombinant human full length GST-tagged Lyn-A expressed in insect cells at 1 uM by Z'-Lyte assay relative to control
[25] = target: Serine/threonine-protein kinase PAK 4 (Homo sapiens) (UniProt O96013); assay: Inhibition of recombinant human GST-tagged PAK4 expressed in baculovirus expression system at 1 uM by Z'-Lyte assay relative to control
[26] = target: Angiopoietin-1 receptor (Homo sapiens) (UniProt Q02763); assay: Inhibition of recombinant human GST-tagged TIE2 cytoplasmic domain expressed in baculovirus expression system at 1 uM by Z'-Lyte assay relative to control
U-87 MG [27] = assay: Antiproliferative activity against human U87MG cells after 72 hrs by DAPI staining based assay; format: functional, cell-based, U-87MG ATCC
[28] = Half life in ICR mouse at 5 mg/kg, po administered as single dose by LC-MS/MS analysis; format: ADME, organism-based; settings: in vivo
[29] = AUC (0 to infinity) in CD-1 mouse brain at 10 mg/kg, po administered as single dose by LC-MS/MS analysis; format: ADME, organism-based; design: dose 10 mg/kg, time infinity, route oral; settings: in vivo
U-87 MG [30] = assay: Antitumor activity against luciferase-fused human U87MG cells orthotopically xenografted in nude mouse assessed as tumor growth inhibition at 3.125 mg/kg, po qd for 4 weeks by bioluminescence imaging relative to control; format: functional, U-87MG ATCC; settings: 672 h, read-out: TGI
[31] = target: Tyrosine-protein kinase SYK (Homo sapiens) (UniProt P43405); assay: Inhibition of recombinant human full length GST-tagged SYK expressed in baculovirus expression system at 1 uM by Z'-Lyte assay relative to control

Chain of Tyrosine-protein kinase BTK (Homo sapiens) (Q06187 whole entry, canonical isoform): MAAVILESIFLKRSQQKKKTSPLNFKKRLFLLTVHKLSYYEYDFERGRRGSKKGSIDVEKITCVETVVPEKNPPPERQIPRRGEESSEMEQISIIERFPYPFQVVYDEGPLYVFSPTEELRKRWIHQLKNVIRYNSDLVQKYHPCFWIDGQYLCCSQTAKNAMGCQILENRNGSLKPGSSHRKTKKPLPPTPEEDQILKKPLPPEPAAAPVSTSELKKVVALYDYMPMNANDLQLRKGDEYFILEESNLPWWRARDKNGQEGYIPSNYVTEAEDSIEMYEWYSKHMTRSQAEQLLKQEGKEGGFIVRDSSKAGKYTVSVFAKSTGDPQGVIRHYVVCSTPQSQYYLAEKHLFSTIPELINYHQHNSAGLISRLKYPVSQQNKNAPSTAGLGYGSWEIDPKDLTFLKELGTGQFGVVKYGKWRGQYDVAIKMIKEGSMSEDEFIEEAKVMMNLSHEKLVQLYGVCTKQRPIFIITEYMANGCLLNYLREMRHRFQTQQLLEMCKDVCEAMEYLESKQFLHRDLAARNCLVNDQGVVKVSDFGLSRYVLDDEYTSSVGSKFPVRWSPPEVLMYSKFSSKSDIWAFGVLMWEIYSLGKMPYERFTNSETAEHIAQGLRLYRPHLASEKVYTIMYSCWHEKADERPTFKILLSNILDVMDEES

Question: With `CC1=Nc2c(F)cc(-c3nc(Nc4ccc(C5CCN(C)CC5)cn4)ncc3F)cc2C12CCCC2` [CROZBACICLIB] as the compound, how does the inhibition [1] read?
Answer: -9%

Question: And the inhibition [2]?
Answer: 15%

Question: What about the inhibition [3] of the same compound?
Answer: 29%

Question: And the inhibition [4]?
Answer: 26%

Question: What about the inhibition [5] of the same compound?
Answer: 0%

Question: And the inhibition [6]?
Answer: 0%

Question: What about the inhibition [7] of the same compound?
Answer: 0%

Question: What about the inhibition [8] of the same compound?
Answer: -1%

Question: And the inhibition [9]?
Answer: 0%

Question: And the inhibition [10]?
Answer: -5%

Question: And the inhibition [11]?
Answer: 3%

Question: And the inhibition [12]?
Answer: -10%

Question: What about the inhibition [13] of the same compound?
Answer: 0%

Question: What about the inhibition [14] of the same compound?
Answer: 107%

Question: What about the inhibition [15] of the same compound?
Answer: 89%

Question: What about the inhibition [16] of the same compound?
Answer: 87%

Question: And the inhibition [17]?
Answer: 26%

Question: What about the inhibition [18] of the same compound?
Answer: 5%

Question: And the inhibition [19]?
Answer: 5%

Question: What about the inhibition [20] of the same compound?
Answer: 3%

Question: What about the inhibition [21] of the same compound?
Answer: 13%

Question: What about the inhibition [22] of the same compound?
Answer: -7%

Question: And the inhibition [23]?
Answer: 1%

Question: What about the inhibition [24] of the same compound?
Answer: 2%

Question: And the inhibition [25]?
Answer: 12%

Question: And the inhibition [26]?
Answer: -2%

Question: What about the IC50 (U-87 MG [27]) of the same compound?
Answer: 15.3 nM

Question: And the half-life [28]?
Answer: 8.38 h

Question: What about the AUC [29] of the same compound?
Answer: 37438 ng·h/g

Question: And the inhibition in vivo at 3.125 mg/kg (U-87 MG [30])?
Answer: 62%

Question: And the inhibition [31]?
Answer: 26%
